From PubChem BioAssay AID330 (DTP/NCI, 2004)
Several values for one entry are separate records, joined by “and”; a condition that tells them apart may be missing. Equal values may be shown once. Inconclusive results and toxic doses are left out. How the source made its calls: active means survival T/C of 150% or more; inactive means T/C below 125% in these data.

Test system: P388 leukemia ip, CD2F1 mice, survival T/C
Test: NCI In Vivo Anticancer Drug Screen. Data for tumor model P388 Leukemia (intraperitoneal) in CD2F1 (CDF1) mice
Conditions: endpoint: median survival time, higher = longer survival
Outline: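 Mice carrying the transplanted tumor received test compound or vehicle. Survival was recorded in each group, and the value is the treated-group measurement divided by that of the vehicle-treated control group.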

[1] = dose: 50.0 mg/kg/injection, schedule: Q01DX009 (ip), vehicle: saline with Tween-80
[2] = dose: 100.0 mg/kg/injection, schedule: Q01DX009 (ip), vehicle: saline with Tween-80
[3] = dose: 200.0 mg/kg/injection, schedule: Q01DX009 (ip), vehicle: saline with Tween-80
[4] = dose: 15.0 mg/kg/injection, schedule: Q01DX005 (ip), vehicle: saline with Tween-80
[5] = dose: 30.0 mg/kg/injection, schedule: Q01DX005 (ip), vehicle: saline with Tween-80
[6] = dose: 60.0 mg/kg/injection, schedule: Q01DX005 (ip), vehicle: saline with Tween-80
[7] = dose: 50.0 mg/kg/injection, schedule: Q01DX005 (ip), vehicle: saline with Tween-80
[8] = dose: 100.0 mg/kg/injection, schedule: Q01DX005 (ip), vehicle: saline with Tween-80
[9] = dose: 50.0 mg/kg/injection, schedule: Q01DX005 (ip), vehicle: saline
[10] = dose: 100.0 mg/kg/injection, schedule: Q01DX005 (ip), vehicle: saline
[11] = dose: 100.0 mg/kg/injection, schedule: Q04DX003 (ip), vehicle: saline with Tween-80
[12] = dose: 200.0 mg/kg/injection, schedule: Q04DX003 (ip), vehicle: saline with Tween-80
[13] = dose: 400.0 mg/kg/injection, schedule: Q04DX003 (ip), vehicle: saline with Tween-80

Measured: T/C

COC1CCC(OC2CC(C3(C)CCC4(CC(O)C(C)C(C(C)/C=C(\C)C(=O)C(C)CC(C)C(=O)O)O4)O3)OC3(OC(C4OC(O)(CO)C(C)CC4C)CC3C)C2C)OC1C (configuration not stated)
inactive: dose: 12.5 micrograms/kg/injection, schedule: Q01DX009 (ip), vehicle: suspension in saline 106 % of control | dose: 25.0 micrograms/kg/injection, schedule: Q01DX009 (ip), vehicle: suspension in saline 108 % of control | dose: 37.5 micrograms/kg/injection, schedule: Q01DX009 (ip), vehicle: suspension in saline 114 % of control | dose: 50.0 micrograms/kg/injection, schedule: Q01DX009 (ip), vehicle: suspension in saline 108 % of control | dose: 75.0 micrograms/kg/injection, schedule: Q01DX009 (ip), vehicle: suspension in saline 109 % of control | dose: 100.0 micrograms/kg/injection, schedule: Q01DX009 (ip), vehicle: suspension in saline 100 % of control | dose: 150.0 micrograms/kg/injection, schedule: Q01DX009 (ip), vehicle: suspension in saline 100 % of control | dose: 200.0 micrograms/kg/injection, schedule: Q01DX009 (ip), vehicle: suspension in saline 107 % of control | dose: 400.0 micrograms/kg/injection, schedule: Q01DX009 (ip), vehicle: suspension in saline 104 % of control

COc1cc2c(cc1OC)-c1[nH]ncc1CC2
inactive: [1] 101 % of control | [2] 101 % of control | [3] 106 % of control

Cc1nnc2c([N+](=O)[O-])c(N)c(Cl)nn12
inactive: dose: 7.5 mg/kg/injection, schedule: Q01DX005 (ip), vehicle: saline with Tween-80 118 % of control | [4] 113 % of control

COc1nc(Cl)cn(C)c1=O
inactive: [4] 101 % of control | [5] 98 % of control | dose: 60.0 mg/kg/injection, schedule: Q01DX005 (ip), vehicle: Klucel (hydroxypropylcellulose) (HPC) 95 % of control | [6] 107 % of control | dose: 120.0 mg/kg/injection, schedule: Q01DX005 (ip), vehicle: Klucel (hydroxypropylcellulose) (HPC) 106 % of control

NCP(=O)(CN)CN
inactive: dose: 50.0 mg/kg/injection, schedule: Q01DX009 (ip), vehicle: Klucel (hydroxypropylcellulose) (HPC) 99 % of control | dose: 100.0 mg/kg/injection, schedule: Q01DX009 (ip), vehicle: Klucel (hydroxypropylcellulose) (HPC) 100 % of control | dose: 200.0 mg/kg/injection, schedule: Q01DX009 (ip), vehicle: Klucel (hydroxypropylcellulose) (HPC) 100 % of control

COc1cc2oc(=O)cc(C)c2cc1N=C=S
inactive: dose: 50.0 mg/kg/injection, schedule: Q04DX003 (ip), vehicle: suspension in saline 100 % of control | dose: 100.0 mg/kg/injection, schedule: Q04DX003 (ip), vehicle: suspension in saline 100 % of control | dose: 200.0 mg/kg/injection, schedule: Q04DX003 (ip), vehicle: suspension in saline 92 % of control

CN(C)N1C(=O)c2c(Cl)c(Cl)c(Cl)c(Cl)c2C1=O
inactive: [7] 94 % of control | [8] 89 % of control

CCOC1OCN(Cc2ccccc2)CC1(C)C (configuration not stated)
inactive: [1] 114 % of control | [2] 115 % of control | [3] 117 % of control

CC1(C)C=Cc2c(cc(O)c3c(=O)c4cccnc4oc23)O1
inactive: dose: 50.0 mg/kg/injection, schedule: Q01DX005 (ip), vehicle: Klucel (hydroxypropylcellulose) (HPC) 90 % of control | dose: 100.0 mg/kg/injection, schedule: Q01DX005 (ip), vehicle: Klucel (hydroxypropylcellulose) (HPC) 102 % of control | dose: 200.0 mg/kg/injection, schedule: Q01DX005 (ip), vehicle: Klucel (hydroxypropylcellulose) (HPC) 90 % of control

Cc1cc2n[se]nc2cc1C
inactive: dose: 6.25 mg/kg/injection, schedule: Q01DX009 (ip), vehicle: Klucel (hydroxypropylcellulose) (HPC) 107 % of control | dose: 12.5 mg/kg/injection, schedule: Q01DX009 (ip), vehicle: Klucel (hydroxypropylcellulose) (HPC) 96 % of control | dose: 25.0 mg/kg/injection, schedule: Q01DX009 (ip), vehicle: Klucel (hydroxypropylcellulose) (HPC) 100 % of control

CC(O)C1CCCCN1 (configuration not stated)
inactive: [9] 101 % of control | [10] 101 % of control | dose: 200.0 mg/kg/injection, schedule: Q01DX005 (ip), vehicle: saline 108 % of control

Cc1nn(-c2ccccc2)c(SC(C)(C)C)c1C=NCCN=Cc1c(C)nn(-c2ccccc2)c1SC(C)(C)C
inactive: dose: 3.75 mg/kg/injection, schedule: Q01DX005 (ip), vehicle: Klucel (hydroxypropylcellulose) (HPC) 100 % of control | dose: 7.5 mg/kg/injection, schedule: Q01DX005 (ip), vehicle: Klucel (hydroxypropylcellulose) (HPC) 98 % of control | dose: 15.0 mg/kg/injection, schedule: Q01DX005 (ip), vehicle: Klucel (hydroxypropylcellulose) (HPC) 100 % of control

CCN(CC)CCN1C(=O)c2cccc(N)c2C1=O
inactive: [9] 103 % of control | [10] 101 % of control

CCOC(=O)/C=C/C(F)(F)F
inactive: [5] 100 % of control | dose: 30.0 mg/kg/injection, schedule: Q01DX005 (ip), vehicle: saline 94 % of control | [6] 100 % of control | dose: 60.0 mg/kg/injection, schedule: Q01DX005 (ip), vehicle: saline 99 % of control and 101 % of control | dose: 120.0 mg/kg/injection, schedule: Q01DX005 (ip), vehicle: saline with Tween-80 100 % of control | dose: 120.0 mg/kg/injection, schedule: Q01DX005 (ip), vehicle: saline 100 % of control and 101 % of control | dose: 240.0 mg/kg/injection, schedule: Q01DX005 (ip), vehicle: saline with Tween-80 107 % of control | dose: 240.0 mg/kg/injection, schedule: Q01DX005 (ip), vehicle: saline 100 % of control and 120 % of control

CCOc1ccc(OCC)c(NC(=O)c2ccccc2)c1
inactive: [11] 100 % of control | [12] 95 % of control | [13] 95 % of control

NC(Cc1ccc([N+](=O)[O-])cc1)C(=O)O (configuration not stated)
inactive: dose: 100.0 mg/kg/injection, schedule: Q01DX001 (ip), vehicle: saline 104 % of control | [11] 104 % of control | dose: 200.0 mg/kg/injection, schedule: Q01DX001 (ip), vehicle: saline 104 % of control | [12] 100 % of control | dose: 400.0 mg/kg/injection, schedule: Q01DX001 (ip), vehicle: saline 109 % of control | [13] 100 % of control

COC(=O)C1NC(C(O)C(O)C(O)C(O)CO)SC1(C)C (configuration not stated)
inactive: dose: 50.0 mg/kg/injection, schedule: Q01DX009 (ip), vehicle: saline 94 % of control | dose: 100.0 mg/kg/injection, schedule: Q01DX009 (ip), vehicle: saline 102 % of control | dose: 200.0 mg/kg/injection, schedule: Q01DX009 (ip), vehicle: saline 100 % of control

O=C1OC2(CCCCC2)N(c2ccccc2)C(=O)/C1=C/Nc1ccc(Cl)cc1
inactive: [1] 98 % of control | [2] 99 % of control | [3] 92 % of control

COc1ccc2c(c1)CCCN2
inactive: dose: 25.0 mg/kg/injection, schedule: Q01DX009 (ip), vehicle: saline with Tween-80 105 % of control and 108 % of control | [1] 103 % of control and 108 % of control | [2] 117 % of control

CN1CC2(C)CCCC(C)(C1)C2O (configuration not stated)
inactive: [7] 106 % of control | [8] 98 % of control
